Our source for the solubility, half-life and IC50 values is patent US20230219965A1 (KSQ Therapeutics, Inc., priority 2020, published 2023).

A short description of data set [1]: ADME solubility determination in PBS at pH 2.0 and pH 7.4. The class given is physicochemical. Particulars: phosphate buffered saline, 25 °C, thermodynamic from solid. The method in brief: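 Dried 10 mM DMSO stock residues taken up in PBS pH 7.4 or pH 2.0, shaken 24 h at 25° C. After centrifugation, supernatant quantified by LC-MS/MS against a standard of known concentration, with a dilution factor applied.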

Data set [2] is described as follows: Liver microsomal metabolic stability, human liver microsomes (HLM). Particulars: human, liver microsomes.
The test system of data set [3] is Ub-PCNA levels in the nucleus of ES2 cells (USP1 activity). In words: ES2 Ub-PCNA immunofluorescence (IF) assay. The data set is classed as cell-based. Particulars: Homo sapiens, ES-2; ES2 cells, 3 hours, Ub-PCNA immunofluorescence; read-out: USP1 IC50 (Ub-PCNA). In a few lines: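 Cells plated overnight, then compound-treated for 3 h at 37° C (0.3% DMSO final), methanol-fixed and stained with anti-Ub-PCNA plus DAPI. Per-nucleus Ub-PCNA intensity imaged; cells above the 95% cutoff of untreated wells counted as positive, and percent positive cells used to derive AC50.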

Data set [4] can be described thus: Liver microsomal metabolic stability, rat liver microsomes (RLM). Particulars: rat, liver microsomes, t1/2 (min) in RLM, 1 μM compound, 1 mg/mL microsomes, NADPH. A general note: Liver microsomes are a subcellular fraction often used to study metabolism.
Another data set deals with USP1/UAF1 enzyme (Homo sapiens, UniProt O94782). Kind of data set: USP1/UAF1 deubiquitination assay (ubiquitin-rhodamine 110 substrate). The data set is classed as biochemical. The note with it: read-out: USP1 IC50 (Ub-Rho). The method in brief:
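0.05 nM USP1/UAF1 was preincubated 10 min with compounds (dose response from 10 μM) in 50 mM Tris-HCl pH 7.8, 0.5 mM EDTA, 0.01% BSA, 1 mM DTT, 0.01% Tween-20. 150 nM ubiquitin-rhodamine 110 started the reaction, read kinetically 30 min at Ex480/Em540; IC50 by four-parameter fit versus no-enzyme and DMSO controls.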

Setting [5] is: pH 2, aqueous buffer, PBS pH 2.0, 25° C., read-out: Solubility at pH 2.0.
Where [6] appears, read: pH 7.4, aqueous buffer, PBS pH 7.4, 25° C., read-out: Solubility at pH 7.4.

Molecules are shown by their SMILES. Read-outs that look alike come from different tables or passages of the source. Some results are limits rather than exact numbers.

Chain of USP1/UAF1 enzyme (O94782 whole entry): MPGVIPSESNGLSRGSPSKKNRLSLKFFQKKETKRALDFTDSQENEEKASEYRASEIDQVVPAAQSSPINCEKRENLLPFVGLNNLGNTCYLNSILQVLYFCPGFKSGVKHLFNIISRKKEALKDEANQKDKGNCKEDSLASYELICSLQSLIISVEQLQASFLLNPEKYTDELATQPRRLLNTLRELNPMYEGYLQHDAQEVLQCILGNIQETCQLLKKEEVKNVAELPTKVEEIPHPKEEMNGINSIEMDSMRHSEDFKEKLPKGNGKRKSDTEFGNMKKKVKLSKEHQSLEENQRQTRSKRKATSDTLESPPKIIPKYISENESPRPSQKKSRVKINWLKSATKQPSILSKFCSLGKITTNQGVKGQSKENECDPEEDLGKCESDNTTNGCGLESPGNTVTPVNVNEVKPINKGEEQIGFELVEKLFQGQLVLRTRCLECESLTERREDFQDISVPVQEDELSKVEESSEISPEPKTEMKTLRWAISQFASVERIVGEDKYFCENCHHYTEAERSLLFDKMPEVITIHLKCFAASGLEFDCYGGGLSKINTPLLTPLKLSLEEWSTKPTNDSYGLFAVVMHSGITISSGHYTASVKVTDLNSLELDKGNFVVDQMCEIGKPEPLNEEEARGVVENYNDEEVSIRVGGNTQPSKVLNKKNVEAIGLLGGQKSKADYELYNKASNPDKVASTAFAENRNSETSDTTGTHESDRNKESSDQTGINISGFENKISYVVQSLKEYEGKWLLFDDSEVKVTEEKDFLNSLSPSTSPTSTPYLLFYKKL
Chain of USP1/UAF1 enzyme (Q8TAF3 whole entry partner): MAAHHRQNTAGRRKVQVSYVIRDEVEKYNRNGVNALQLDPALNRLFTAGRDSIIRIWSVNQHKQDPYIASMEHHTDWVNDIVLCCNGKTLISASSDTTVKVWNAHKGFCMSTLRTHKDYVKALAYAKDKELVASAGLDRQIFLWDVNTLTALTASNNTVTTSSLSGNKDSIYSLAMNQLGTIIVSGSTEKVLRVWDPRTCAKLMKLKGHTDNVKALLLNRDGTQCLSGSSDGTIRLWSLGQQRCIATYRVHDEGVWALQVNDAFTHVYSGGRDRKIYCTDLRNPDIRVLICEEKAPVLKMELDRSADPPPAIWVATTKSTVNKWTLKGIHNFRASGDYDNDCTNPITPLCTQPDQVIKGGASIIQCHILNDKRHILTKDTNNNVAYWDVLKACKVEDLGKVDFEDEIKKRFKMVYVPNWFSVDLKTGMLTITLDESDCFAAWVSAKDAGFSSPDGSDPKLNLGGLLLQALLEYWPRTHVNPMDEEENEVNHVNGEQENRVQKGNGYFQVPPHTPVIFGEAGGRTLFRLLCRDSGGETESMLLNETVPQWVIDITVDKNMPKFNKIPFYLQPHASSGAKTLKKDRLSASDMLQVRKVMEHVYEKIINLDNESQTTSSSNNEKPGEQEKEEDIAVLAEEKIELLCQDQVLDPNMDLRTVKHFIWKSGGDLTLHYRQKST

For orientation: solubility means the dissolved amount per volume that the medium holds. For orientation: half-life means the time needed for the level to fall by half in the phase considered. Lower therefore signals fast loss. In general, IC50 refers to the point on the concentration scale where inhibition reaches its midpoint. For `CCn1cc(C(F)(F)F)nc1-c1ccc(NC2CCCn3nc(-c4c(Cl)cnn4C(C)C)cc32)cc1F` (stereo not drawn) [Example 241, 2-(4-chloro-1-isopropyl-1H-pyrazol-5-yl)-N-(4-(1-ethyl-4-(trifluoromethyl)-1H-imidazol-2-yl)-3-fluorophenyl)-4,5,6,7-tetrahydropyrazolo[1,5-a]pyridin-4-amine], the solubility at 24 h in data set [1] (setting [5]) and in data set [1] (setting [6]) was < 10 µM each time. For the same compound, the half-life at 1 μM in data set [2] and in data set [4] was > 25 min each time. For the same compound, the IC50 is 0.1 to 0.5 µM in data set [3] and < 0.1 µM on USP1/UAF1 enzyme.
As for `CCn1cc(C(F)(F)F)nc1-c1ccc(N(CCO)C2CCCn3nc(-c4c(Cl)cnn4C(C)C)cc32)cc1F` (stereo not drawn) [Example 331, 2-((2-(4-chloro-1-isopropyl-1H-pyrazol-5-yl)-4,5,6,7-tetrahydropyrazolo[1,5-α]pyridin-4-yl)(4-(1-ethyl-4-(trifluoromethyl)-1H-imidazol-2-yl)-3-fluorophenyl)amino)-ethan-1-ol], the solubility at 24 h in data set [1] (setting [5]) and in data set [1] (setting [6]) was < 10 µM throughout. Further, the half-life at 1 μM in data set [2] and in data set [4] was < 25 min throughout. Further, the IC50 (in data set [3]; at USP1/UAF1 enzyme) was < 0.1 µM in each case.
As to `CCn1cc(C(F)(F)F)nc1-c1ccc([C@@H](C)N2C(=O)CCn3nc(-c4c(OC)ncnc4C4CC4)nc32)cc1F` [Example 191], the solubility at 24 h in data set [1] (setting [5]) and in data set [1] (setting [6]) was < 10 µM in each case. Moreover, the figures for the half-life at 1 μM in data set [2] and in data set [4] were > 25 min and < 25 min, respectively. The IC50 (in data set [3]; at USP1/UAF1 enzyme) was < 0.1 µM throughout.
`CCn1cc(C(F)(F)F)nc1-c1ccc(CN2C(=O)CCn3nc(-c4c(Cl)cnn4C(C)C)cc32)cn1` [Example 111]: the solubility at 24 h in data set [1] (setting [5]) and in data set [1] (setting [6]) was < 10 µM throughout. For the same compound, the half-life at 1 μM in data set [2] and in data set [4] was > 25 min throughout. The IC50 in data set [3] was 0.1 to 0.5 µM; on USP1/UAF1 enzyme, < 0.1 µM.
Consider `Cc1cnn(C(C)C)c1-c1nn2c(c1Cl)N(Cc1ccc(-c3nc(C(F)(F)F)cn3C(C)C)c(F)c1)CCC2` [Example 148], for which the solubility at 24 h in data set [1] (setting [5]) and in data set [1] (setting [6]) was < 10 µM each time. The half-life at 1 μM in data set [2] and in data set [4] was < 25 min each time. In addition, the IC50 (in data set [3]; on USP1/UAF1 enzyme) was < 0.1 µM throughout.
Turning to `CCn1cc(C(F)(F)F)nc1-c1ccc(N[C@@H]2CCCn3nc(-c4c(Cl)cnn4C(C)C)cc32)cc1` (single isomer, unassigned) [Example 238], the solubility at 24 h in data set [1] (setting [5]) and in data set [1] (setting [6]) was < 10 µM in each case. Besides, the half-life at 1 μM in data set [2] and in data set [4] was > 25 min in each case. Also, the IC50 (in data set [3]; on USP1/UAF1 enzyme) was < 0.1 µM throughout.
For `CCn1cc(C(F)(F)F)nc1-c1ccc(CN2C(=O)C(C)Cn3nc(-c4c(OC)ncnc4C4CC4)nc32)cc1F` (stereo not drawn) [Example 347, 2-(4-cyclopropyl-6-methoxypyrimidin-5-yl)-4-(4-(1-ethyl-4-(trifluoromethyl)-1H-imidazol-2-yl)-3-fluorobenzyl)-6-methyl-6,7-dihydro-[1,2,4]triazolo[1,5-α]pyrimidin-5(4H)-one], the solubility at 24 h in data set [1] (setting [5]) and in data set [1] (setting [6]) was ≥ 10 µM each time. Moreover, the half-life at 1 μM in data set [2] and in data set [4] was > 25 min throughout. Further, the IC50 (in data set [3]; on USP1/UAF1 enzyme) was < 0.1 µM throughout.
Consider `COc1ncnc(C2CC2)c1-c1cc2n(n1)CCC(C)N2Cc1ccc(-c2nc(C(F)(F)F)cn2C)cc1` (racemic) [Example 48, 2-(4-cyclopropyl-6-methoxypyrimidin-5-yl)-5-methyl-4-(4-(1-methyl-4-(trifluoromethyl)-1H-imidazol-2-yl)benzyl)-4,5,6,7-tetrahydropyrazolo[1,5-α]pyrimidine], for which the solubility at 24 h in data set [1] (setting [5]) and in data set [1] (setting [6]) was ≥ 10 µM in each case. The half-life at 1 μM in data set [2] and in data set [4] was < 25 min throughout. Besides, the IC50 (in data set [3]; on USP1/UAF1 enzyme) was < 0.1 µM throughout.
In the case of `CC(C)n1ncc(Cl)c1-c1cc2n(n1)CCC(=O)N2Cc1ccc(-c2cn(C)c(C(F)(F)F)n2)cc1` [Example 116], the solubility at 24 h in data set [1] (setting [5]) and in data set [1] (setting [6]) was < 10 µM in each case. Moreover, the half-life at 1 μM in data set [2] and in data set [4] was > 25 min each time. Also, the results for the 50% inhibitory concentration (IC50) (in data set [3]; at USP1/UAF1 enzyme) were 0.1 to 0.5 µM and < 0.1 µM, respectively.
Turning to `COc1cc(CN2C(=O)CCn3nc(-c4c(OC)ncnc4C4CC4)cc32)ccc1-c1nc(C(F)(F)F)cn1C(C)C` [Example 108], the solubility at 24 h in data set [1] (setting [5]) is ≥ 10 µM; in data set [1] (setting [6]) it was < 10 µM. For the same compound, the half-life at 1 μM in data set [2] and in data set [4] was > 25 min throughout. Also, the IC50 (in data set [3]; on USP1/UAF1 enzyme) was < 0.1 µM each time.
Consider `CC(C)Oc1cccnc1-c1ccc(CN2C(=O)CCn3nc(-c4c(Cl)cnn4C(C)C)cc32)cc1` [Example 291], for which the solubility at 24 h in data set [1] (setting [5]) and in data set [1] (setting [6]) was < 10 µM each time. In addition, the half-life at 1 μM in data set [2] and in data set [4] was < 25 min throughout. Further, the results for the IC50 (in data set [3]; on USP1/UAF1 enzyme) were 0.1 to 0.5 µM and < 0.1 µM, respectively.
On to `CC(C)n1ncc(Cl)c1-c1nc2n(n1)CCC(=O)N2Cc1ccc(-c2nc(C(F)(F)F)cn2C)cc1` [Example 39], for which the solubility at 24 h in data set [1] (setting [5]) and in data set [1] (setting [6]) was < 10 µM each time. The half-life at 1 μM in data set [2] and in data set [4] was > 25 min each time. Moreover, the half-maximal inhibitory concentration (IC50) (in data set [3]; on USP1/UAF1 enzyme) was < 0.1 µM in each case.
Regarding `COc1ncnc(C2CC2)c1-c1nc2n(n1)CCC(=O)N2[C@@H](C)c1ccc(-c2nc(C(F)(F)F)cn2C)c(F)c1` [Example 196], the solubility at 24 h in data set [1] (setting [5]) and in data set [1] (setting [6]) was ≥ 10 µM each time. The values for the half-life at 1 μM in data set [2] and in data set [4] were < 25 min and > 25 min, respectively. Moreover, the IC50 in data set [3] is < 0.1 µM; at USP1/UAF1 enzyme, 0.1 to 0.5 µM.
As for `CCn1cc(C(F)(F)F)nc1-c1ccc(CN2C(=O)CCn3nc(-c4c(Cl)cnn4[C@H](C)COC)cc32)cc1F` [Example 131], the solubility at 24 h in data set [1] (setting [5]) and in data set [1] (setting [6]) was < 10 µM in each case. Moreover, the half-life at 1 μM in data set [2] and in data set [4] was < 25 min throughout. Also, the IC50 (in data set [3]; on USP1/UAF1 enzyme) was < 0.1 µM throughout.
Take `CCn1cc(C(F)(F)F)nc1-c1c(Cl)cc(CN2C(=O)CCn3nc(-c4c(OC)ncnc4C4CC4)cc32)cc1OC` [Example 145]: the solubility at 24 h in data set [1] (setting [5]) and in data set [1] (setting [6]) was < 10 µM each time. The half-life at 1 μM in data set [2] and in data set [4] was < 25 min in each case. The IC50 (in data set [3]; on USP1/UAF1 enzyme) was < 0.1 µM each time.
`CC(C)n1cc(C(F)(F)F)nc1-c1ccc(CN2CCCn3nc(-c4c(Cl)cnn4C(C)C)cc32)cc1F` [Example 59]: the solubility at 24 h in data set [1] (setting [5]) and in data set [1] (setting [6]) was < 10 µM in each case. Further, the half-life at 1 μM in data set [2] and in data set [4] was < 25 min each time. Further, the IC50 (in data set [3]; on USP1/UAF1 enzyme) was < 0.1 µM throughout.
Consider `COc1ncnc(C)c1-c1cc2n(n1)CCCN2Cc1ccc(-c2nc(C(F)(F)F)cn2C)cc1` [Example 25], for which the solubility at 24 h in data set [1] (setting [5]) and in data set [1] (setting [6]) was ≥ 10 µM in each case. In addition, the half-life at 1 μM in data set [2] and in data set [4] was < 25 min in each case. Further, the IC50 was > 0.5 µM in data set [3] and 0.1 to 0.5 µM on USP1/UAF1 enzyme.
